Assay results: patent US20210024545A1, “SUBSTITUTED DIAZAHETERO-BICYCLIC COMPOUNDS AND THEIR USE” (Bayer Aktiengesellschaft, priority 2016, published 2021)

Legend:
human TASK-3 = human TASK-3 (Homo sapiens, UniProt Q9NPC2); experiment: Inhibition of recombinant TASK-3 in stably transfected CHO cells, KCl-induced depolarization, voltage-sensitive dye (B-2); format: cell-based; set-up: expressed in transfected cells; host or cells: stably transfected CHO cells; settings: depolarization induced by 40 mM potassium chloride, some mean values from multiple determinations
Method: (§1) B-2. Inhibition of Recombinant TASK-1 and TASK-3 In Vitro
(§2) The investigations on the inhibition of the recombinant TASK-1 and TASK-3 channels were conducted using stably transfected CHO cells. The compounds of the invention were tested here with administration of 40 mM of potassium chloride in the presence of a voltage-sensitive dye using the method described in detail in the following references [Whiteaker et al., Validation of FLIPR membrane potential dye for high-throughput screening of potassium channel modulators, J. Biomol. Screen. 6 (5), 305-312 (2001); Molecular Devices FLIPR Application Note: Measuring membrane potential using the FLIPR® membrane potential assay kit on Fluorometric Imaging Plate Reader (FLIPR®) systems, http://www.moleculardevices.com/reagents-supplies/assay-kits/ion-channels/flipr-membrane-potential-assay-kits]. The activity of the test substances was determined as their ability to inhibit a depolarization induced in the recombinant cells by 40 mM potassium chloride. The concentration which can block half of this depolarization is referred to as IC50).
(§3) Table 2 below lists the IC50 values from this assay determined for individual working examples of the invention (some as mean values from multiple independent individual determinations): […]

human TASK-1 = human TASK-1 (Homo sapiens, UniProt O14649); experiment: Inhibition of recombinant TASK-1 in stably transfected CHO cells, KCl-induced depolarization, voltage-sensitive dye (B-2); format: cell-based; set-up: expressed in transfected cells; host or cells: stably transfected CHO cells; settings: depolarization induced by 40 mM potassium chloride, some mean values from multiple determinations
Method: as §1, §2, §3

Sequence of human TASK-3 (Q9NPC2 whole entry): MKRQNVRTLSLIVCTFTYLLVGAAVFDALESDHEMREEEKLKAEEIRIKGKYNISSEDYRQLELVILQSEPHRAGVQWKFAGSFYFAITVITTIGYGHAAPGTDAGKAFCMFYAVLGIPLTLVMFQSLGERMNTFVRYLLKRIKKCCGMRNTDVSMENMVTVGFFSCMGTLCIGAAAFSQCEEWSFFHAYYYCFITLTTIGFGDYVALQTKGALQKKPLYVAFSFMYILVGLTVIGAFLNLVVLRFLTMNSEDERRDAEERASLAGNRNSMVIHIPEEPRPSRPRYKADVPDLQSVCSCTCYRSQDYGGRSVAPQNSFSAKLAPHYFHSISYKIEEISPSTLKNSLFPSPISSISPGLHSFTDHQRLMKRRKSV
Sequence of human TASK-1 (O14649 whole entry): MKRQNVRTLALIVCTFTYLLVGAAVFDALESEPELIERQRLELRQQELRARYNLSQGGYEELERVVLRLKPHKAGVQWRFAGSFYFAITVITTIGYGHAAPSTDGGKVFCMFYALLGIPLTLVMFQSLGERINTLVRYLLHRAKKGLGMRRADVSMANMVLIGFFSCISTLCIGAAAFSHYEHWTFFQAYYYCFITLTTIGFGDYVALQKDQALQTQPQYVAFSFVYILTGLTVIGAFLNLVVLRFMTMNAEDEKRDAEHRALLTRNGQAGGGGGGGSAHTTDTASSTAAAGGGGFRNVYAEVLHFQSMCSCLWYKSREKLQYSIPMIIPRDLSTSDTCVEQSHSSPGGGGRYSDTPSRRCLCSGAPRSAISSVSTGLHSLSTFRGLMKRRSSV

SMILES | IC50 (human TASK-3) [nM] | IC50 (human TASK-1) [nM]
CC(C)c1ccc(-c2nc3ccccn3c2CN2CC3CCC2CN3C(=O)C2CCCC2)cc1 (single isomer, unassigned) [Example 62] | 760 | 2800
COc1ccc(C)c(C(=O)N2CC3CCC2CN3Cc2c(-c3ccc(Cl)cc3)nc3ccccn23)n1 (single isomer, unassigned) [Example 138] | 6.8 | 75
O=C(c1ccccc1F)N1C2CC1CN(Cc1c(-c3ccc(Cl)cc3)nc3ccccn13)C2 [Example 117] | 520 | 635
CC(C)N(C(=O)N1C2CCC1CN(Cc1c(-c3ccc(Cl)cc3)nc3ccccn13)C2)C(C)C [Example 174, 3-{[2-(4-Chlorophenyl)imidazo[1,2-a]pyridin-3-yl]methyl}-N,N-diisopropyl-3,8-diazabicyclo[3.2.1]octane-8-carboxamide] | 13 | 91
COc1ccccc1C(=O)N1CC2CCC1CN2Cc1c(-c2ccc(Cl)cc2)nc2ccccn12 (single isomer, unassigned) [Example 44] | 3.3 | 130
O=C(Nc1cc(C(F)(F)F)ccc1Cl)N1C2CCC1CN(Cc1c(-c3ccc(Cl)cc3)nc3ccccn13)C2 [Example 160, 3-{[2-(4-Chlorophenyl)imidazo[1,2-a]pyridin-3-yl]methyl}-N-[2-chloro-5-(trifluoromethyl)phenyl]-3,8-diazabicyclo[3.2.1]octane-8-carboxamide] | 1000 | 7600
O=C(c1cccc(OC(F)(F)F)c1)N1C2COCC1CN(Cc1c(-c3ccc(Cl)cc3)nc3ccccn13)C2 [Example 72] | 120 | 2000
O=C(C1CCCC1)N1C2COCC1CN(Cc1c(-c3ccc(Cl)cc3)nc3ccccn13)C2 [Example 71] | 24 | 130
O=C(NC1CC1)N1C2CCC1CN(Cc1c(-c3ccc(Cl)cc3)nc3ccccn13)C2 [Example 170, 3-{[2-(4-Chlorophenyl)imidazo[1,2-a]pyridin-3-yl]methyl}-N-cyclopropyl-3,8-diazabicyclo[3.2.1]octane-8-carboxamide] | 64 | 1200
O=C(c1cc(F)ccc1Cl)N1C2CCC1CN(Cc1c(-c3ccc(Cl)cc3)nc3ccccn13)C2 [Example 106] | 110 | 870
Cc1ccccc1C(=O)N1C2CCC1CN(Cc1c(-c3ccc(Cl)cc3)nc3ccccn13)C2 [Example 100] | 17 | 250
CC(C)(C)OC(=O)N1C2CCC1CN(Cc1c(-c3ccc(Cl)cc3)nc3ccccn13)C2 [Example 10] | 230 | 1090
O=C(c1cccc(Cl)c1)N1C2COCC1CN(Cc1c(-c3ccc(Cl)cc3)nc3ccccn13)C2 [Example 79] | 190 | 1000
O=C(Nc1ccccc1F)N1C2CCC1CN(Cc1c(-c3ccc(Cl)cc3)nc3ccccn13)C2 [Example 155, 3-{[2-(4-Chlorophenyl)imidazo[1,2-a]pyridin-3-yl]methyl}-N-(2-fluorophenyl)-3,8-diazabicyclo[3.2.1]octane-8-carboxamide] | 210 | 610
Cc1ccccc1C(=O)N1CC2CCC1CN2Cc1c(-c2ccc(Cl)cc2)nc2ccccn12 (single isomer, unassigned) [Example 46] | 5 | 73
O=C(NC1CCCCC1)N1C2CCC1CN(Cc1c(-c3ccc(Cl)cc3)nc3ccccn13)C2 [Example 164, 3-{[2-(4-Chlorophenyl)imidazo[1,2-a]pyridin-3-yl]methyl}-N-cyclohexyl-3,8-diazabicyclo[3.2.1]octane-8-carboxamide] | 1000 | 3100
O=C(C1CCCC1)N1C2CCC1CN(Cc1c(-c3ccc(Br)cc3)nc3ccccn13)C2 [Example 96] | 4.5 | 240
CC(C)c1ccc(-c2nc3ccccn3c2CN2CC3CCC2CN3C(=O)C2CCCC2)cc1 (single isomer, unassigned) [Example 63] | 140 | 490
COc1cccc(C(=O)N2C3CCC2CN(Cc2c(-c4ccc(Br)cc4)nc4ccccn24)C3)c1 [Example 99] | 16 | 470
Cc1ccccc1C(=O)N1CC2CCC(C1)N2Cc1c(-c2ccc(Cl)cc2)nc2ccccn12 [Example 90] | 79 | 958

SMILES | IC50 (human TASK-3) [nM] | IC50 (human TASK-1) [nM]
O=C(c1ccccc1F)N1C2COCC1CN(Cc1c(-c3ccc(Cl)cc3)nc3ccccn13)C2 [Example 69] | 101 | 870
Cc1cccc(Cl)c1NC(=O)N1C2COCC1CN(Cc1c(-c3ccc(Cl)cc3)nc3ccccn13)C2 [Example 169, N-(2-Chloro-6-methylphenyl)-7-{[2-(4-chlorophenyl)imidazo[1,2-a]pyridin-3-yl]methyl}-3-oxa-7,9-diazabicyclo[3.3.1]nonane-9-carboxamide] | 110 | 3600
O=C(OC1CCCC1)N1C2COCC1CN(Cc1c(-c3ccc(Cl)cc3)nc3ccccn13)C2 [Example 196, Cyclopentyl 7-{[2-(4-chlorophenyl)imidazo[1,2-a]pyridin-3-yl]methyl}-3-oxa-7,9-diazabicyclo[3.3.1]nonane-9-carboxylate] | 52 | 440
CC(C)c1ccc(-c2nc3ccccn3c2CN2CC3CCC(C2)N3C(=O)c2ccccc2F)cc1 [Example 110] | 300 | 780
CC(C)(C)OC(=O)N1C2CCC1CN(Cc1c(-c3ccc(Cl)cn3)nc3ccccn13)C2 [Example 14] | 860 | 5100
O=C(c1ccccn1)N1CC2CCC1CN2Cc1c(-c2ccc(Cl)cc2)nc2ccccn12 (single isomer, unassigned) [Example 51] | 34 | 290
O=C(C1CCCC1)N1C2CC1CN(Cc1c(-c3ccc(Cl)cc3)nc3ccccn13)C2 [Example 116] | 340 | 535
Cc1ccc(NC(=O)N2C3CCC2CN(Cc2c(-c4ccc(Cl)cc4)nc4ccccn24)C3)c(C)c1 [Example 167, 3-{[2-(4-Chlorophenyl)imidazo[1,2-a]pyridin-3-yl]methyl}-N-(2,4-dimethylphenyl)-3,8-diazabicyclo[3.2.1]octane-8-carboxamide] | 350 | 3000
CN(C(=O)N1C2CCC1CN(Cc1c(-c3ccc(Cl)cc3)nc3ccccn13)C2)c1ccccc1 [Example 172, 3-{[2-(4-Chlorophenyl)imidazo[1,2-a]pyridin-3-yl]methyl}-N-methyl-N-phenyl-3,8-diazabicyclo[3.2.1]octane-8-carboxamide] | 80 | 5200
O=C(N1CCSCC1)N1C2CCC1CN(Cc1c(-c3ccc(Cl)cc3)nc3ccccn13)C2 [Example 183, (3-{[2-(4-Chlorophenyl)imidazo[1,2-a]pyridin-3-yl]methyl}-3,8-diazabicyclo[3.2.1]oct-8-yl)(thiomorpholin-4-yl)methanone] | 26 | 450
O=C(c1ccccc1F)N1CC2CCC1CN2Cc1c(-c2ccc(Cl)cc2)nc2ccccn12 (single isomer, unassigned) [Example 35] | 200 | 350
O=C(C1CCCCC1)N1C2CC1CN(Cc1c(-c3ccc(Cl)cc3)nc3ccccn13)C2 [Example 118] | 1000 | 860
CC(C)c1ccc(-c2nc3ccccn3c2CN2CC3CCC(C2)N3C(=O)OC(C)(C)C)cc1 [Example 12] | 8300 | 3000
CC(C)c1ccccc1C(=O)N1C2COCC1CN(Cc1c(-c3ccc(Cl)cc3)nc3ccccn13)C2 [Example 73] | 9.6 | 160
O=C(c1ccccc1F)N1CC2CCC1CN2Cc1c(-c2ccc(Br)cc2)nc2ccccn12 (racemic) [Example 152, (5-{[2-(4-Bromophenyl)imidazo[1,2-a]pyridin-3-yl]methyl}-2,5-diazabicyclo[2.2.2]oct-2-yl)(2-fluorophenyl)methanone] | 75 | 2900
O=C(c1ccccc1F)N1CC2CCC1CN2Cc1c(-c2ccc(Cl)cc2)nc2ccccn12 (single isomer, unassigned) [Example 36] | 250 | 670
O=C(c1nccs1)N1C2CCC1CN(Cc1c(-c3ccc(Cl)cc3)nc3ccccn13)C2 [Example 147, (3-{[2-(4-Chlorophenyl)imidazo[1,2-a]pyridin-3-yl]methyl}-3,8-diazabicyclo[3.2.1]oct-8-yl)(1,3-thiazol-2-yl)methanone] | 15 | 12
CC(C)c1cccc(C(=O)N2C3COCC2CN(Cc2c(-c4ccc(Cl)cc4)nc4ccccn24)C3)c1 [Example 76] | 14 | 240
CC(C)c1ccc(-c2nc3ccccn3c2CN2C3CCC2CN(C(=O)c2ccccc2F)C3)cc1 [Example 94] | 130 | 530
COc1ccc(Cl)c(C(=O)N2C3COCC2CN(Cc2c(-c4ccc(Cl)cn4)nc4ccccn24)C3)n1 [Example 136, (3-Chloro-6-methoxypyridin-2-yl)(7-{[2-(5-chloropyridin-2-yl)imidazo[1,2-a]pyridin-3-yl]methyl}-3-oxa-7,9-diazabicyclo[3.3.1]non-9-yl)methanone] | 44 | 9300
